Calls of active or inactive are those of the source. The calls are words filed in the database; no cut-off is given here.
Columns and labels:
[1] = Half life of the compound in phosphate buffer at pH 6 by UV-illumination; type: ADME
[2] = Cytotoxicity against BAECs assessed as decrease in total intracellular LDH content at 15 mM measured after 3 hrs by LDH assay relative to vehicle control; type: cell-based, Bos taurus; design: scale not given: the % may be the effect or the level left; settings: cattle, baec, 15000 µM
Aorta [3] = assay: Potentiation of SNP-induced vasorelaxant activity in Sprague-Dawley rat endothelium-intact aortic rings assessed as reduction in L-phenylephrine hydrochloride-induced contraction at 200 uM relative to SNP; type: functional
Aorta [4] = assay: (§1) Vasoprotective activity against oxidative stress-induced impairment of ACh-stimulated vasorelaxation in Sprague-Dawley rat endothelium-intact aortic rings assessed as reduction in L-phenylephrine hydrochloride-induced contraction preincubated for 10 to 20 mins in presence of xanthine-xanthine oxidase system prior to L-phenylephrine hydrochloride addition; type: functional
Aorta [5] = assay: as §1, with “system at 200 uM” for “system”, “addition relative to ACh” for “addition”; type: functional
Aorta [6] = assay: Protection against NADPH-induced superoxide-mediated tissue damage in Sprague-Dawley rat endothelium-intact aortic rings assessed as inhibition of protein carbonyl formation at 200 uM pre-incubated for 30 mins in presence of DTC prior to NADPH addition measured after 60 mins using 7-hydrazino-4-nitrobenzo-2,1,3-oxadiazole by fluorimetric analysis; type: functional
Aorta [7] = assay: (§2) Protection against NADPH-induced superoxide-mediated tissue damage in Sprague-Dawley rat endothelium-intact aortic rings assessed as decomposition of methyl radical adduct preincubated for 30 mins at 200 uM in presence of DTC prior to NADPH addition after 60 mins followed by renewal of media with NADPH-compound mixture measured after 4 days by EPR spectroscopy relative to control; type: functional
A549 [8] = assay: Cytotoxicity against human A549 cells assessed as reduction in cell viability measured after 24 hrs by MTT assay; type: cell-based; settings: a549, 24 h
[9] = Antioxidant activity assessed as DPPH scavenging activity measured after 3 mins by spectrophotometric method; type: physicochemical
[10] = Antioxidant activity assessed as AAPH free radical scavenging activity measured as trolox equivalent by TRAP assay; type: physicochemical
[11] = Antioxidant activity assessed as inhibition of […]-xanthine oxidase system-mediated superoxide formation measured over 7 mins by lucigenin-based chemiluminescence analysis; type: physicochemical
A549 [12] = assay: Cytotoxicity against human A549 cells assessed as reduction in cell viability measured after 48 hrs by FMCA assay; type: cell-based; settings: A549, 48 h
A549 [13] = assay: Cytotoxicity against human A549 cells assessed as reduction in cell viability measured after 48 hrs by luminescence-based ATP assay; settings: A549, 48 h
A549 [14] = assay: Cytotoxicity against human A549 cells assessed as reduction in cell viability measured after 48 hrs by MTT assay; type: cell-based; settings: A549, 48 h
[15] = Cytotoxicity against BAEC assessed as reduction in cell viability measured after 24 hrs by MTT assay; design: species or system Bos taurus; settings: cattle
Aorta [16] = assay: Protection against superoxide-mediated tissue damage in Sprague-Dawley rat endothelium-intact aortic rings assessed as methyl radical adduct formation preincubated for 30 mins at 200 uM in presence of DTC measured after 4 days by EPR spectroscopy; type: functional
[17] = Cytotoxicity against BAEC assessed as decrease in total intracellular LDH content at 15 mM measured after 1 hr by LDH assay relative to vehicle-treated control; type: cell-based, Bos taurus; design: scale not given: the % may be the effect or the level left; settings: cattle, 15000 µM
Aorta [18] = assay: Toxicity in Sprague-Dawley rat endothelium-intact aortic rings at 15 mM measured after 20 mins; settings: 15000 µM
Aorta [19] = assay: as §2, with “as” for “as decomposition of”, “formation pre-incubated” for “preincubated”, “addition measured” for “addition”, “20 mins in presence of DPI” for “4 days”, “spectroscopy” for “spectroscopy relative to control”; type: functional
[20] = biological target: Xanthine dehydrogenase/oxidase (Homo sapiens, UniProt P47989); assay: Inhibition of xanthine oxidase (unknown origin) using xanthine as substrate assessed as inhibition of uric acid formation at 1 to 100 uM after 30 mins by spectrophotometric method; settings: 0.5 h
Chain of Xanthine dehydrogenase/oxidase (P47989 whole entry): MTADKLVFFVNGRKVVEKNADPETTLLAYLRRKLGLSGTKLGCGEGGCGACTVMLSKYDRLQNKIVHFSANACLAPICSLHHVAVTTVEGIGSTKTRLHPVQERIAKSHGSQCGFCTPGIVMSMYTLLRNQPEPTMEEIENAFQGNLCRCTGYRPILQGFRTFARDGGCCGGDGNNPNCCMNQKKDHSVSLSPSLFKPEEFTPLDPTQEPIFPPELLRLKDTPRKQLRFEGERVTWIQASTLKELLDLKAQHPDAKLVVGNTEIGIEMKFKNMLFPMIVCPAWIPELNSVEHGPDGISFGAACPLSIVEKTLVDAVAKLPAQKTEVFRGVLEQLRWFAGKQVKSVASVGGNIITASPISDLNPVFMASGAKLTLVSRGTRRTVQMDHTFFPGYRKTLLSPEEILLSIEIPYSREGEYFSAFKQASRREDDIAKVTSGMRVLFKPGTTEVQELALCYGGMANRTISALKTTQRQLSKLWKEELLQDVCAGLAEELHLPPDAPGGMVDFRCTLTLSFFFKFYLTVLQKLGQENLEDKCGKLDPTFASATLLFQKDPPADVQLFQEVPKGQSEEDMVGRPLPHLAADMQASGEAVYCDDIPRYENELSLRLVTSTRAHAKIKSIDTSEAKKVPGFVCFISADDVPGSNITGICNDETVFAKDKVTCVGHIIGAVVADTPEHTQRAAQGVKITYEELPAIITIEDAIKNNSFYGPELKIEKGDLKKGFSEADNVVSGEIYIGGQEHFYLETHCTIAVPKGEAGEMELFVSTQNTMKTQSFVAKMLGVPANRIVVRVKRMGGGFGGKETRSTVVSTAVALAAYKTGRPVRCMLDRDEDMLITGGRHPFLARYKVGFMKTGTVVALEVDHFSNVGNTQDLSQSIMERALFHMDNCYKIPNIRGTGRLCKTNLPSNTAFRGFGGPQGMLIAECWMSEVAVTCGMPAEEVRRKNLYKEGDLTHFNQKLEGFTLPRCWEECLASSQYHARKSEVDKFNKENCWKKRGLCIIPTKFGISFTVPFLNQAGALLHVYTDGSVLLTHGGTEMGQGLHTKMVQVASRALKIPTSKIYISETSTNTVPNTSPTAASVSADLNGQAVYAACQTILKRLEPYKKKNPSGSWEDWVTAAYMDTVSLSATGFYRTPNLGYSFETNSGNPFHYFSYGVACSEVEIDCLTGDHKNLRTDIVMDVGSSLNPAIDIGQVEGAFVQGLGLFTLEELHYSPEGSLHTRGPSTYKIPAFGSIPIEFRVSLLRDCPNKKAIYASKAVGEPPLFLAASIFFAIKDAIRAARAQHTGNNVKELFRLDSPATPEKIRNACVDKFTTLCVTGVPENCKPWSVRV

[21] = Induction of nitric oxide release in water using Fe2+-MGD2 as nitric oxide trap at pH 6.56 measured 70 mins post UV-photolysis in dark condition by EPR spectroscopy; type: physicochemical; settings: buffer, pH 6.56, 70 min
[22] = Cytotoxicity against BAECs assessed as reduction in cell viability measured after 24 hrs by neutral red assay; settings: Bos taurus, BAEC
[23] = Induction of nitric oxide release in water using Fe2+-MGD2 as nitric oxide trap at pH 6.56 incubated in ambient light for 4.5 hrs by EPR spectroscopy; type: physicochemical; settings: buffer, pH 6.56, 4.5 h

| EC50 (Aorta [4]) [nM] | EC50 [9] [µM] | Activity [10] [equiv] | IC50 [11] [µM] | inhibition (INH) [20] | Activity [21] | Compound | Activity [2] [%] | Rmax (Aorta [3]) [%] | Rmax (Aorta [5]) [%] | inhibition (Aorta [6]) | Activity (Aorta [7]) [%] | IC50 (A549 [12]) [mM] | IC50 (A549 [13]) [mM] | IC50 (A549 [14]) [mM] | IC10 [15] [mM] | Activity (Aorta [16]) | Activity [17] [%] | Activity (Aorta [18]) | Activity (Aorta [19]) | other results |
| --- | --- | --- | --- | --- | --- | --- | --- | --- | --- | --- | --- | --- | --- | --- | --- | --- | --- | --- | --- | --- |
| 40.7 | 22 | 2.22 | 0.2 | Not Active | – | CCOP(=O)(OCC)C(C)(C)/[N+]([O-])=C/c1ccc(O)c(O)c1 | 28 | 103 | 93 | Active | < 5 | 1.9 | 1.9 | 1.3 | 0.5 | inactive | < 10 | Non-toxic | inactive | – |
| 53.7 | 254 | 1.91 | 28.6 | Not Active | – | CCOP(=O)(OCC)C(C)(C)/[N+]([O-])=C/c1ccc(O)c(OC)c1 | 23 | 100 | 86 | Active | < 5 | 6.4 | 4.3 | 3.9 | 0.7 | inactive | < 10 | Non-toxic | inactive | – |
| – | > 1000 | 0.7 | 187 | Not Active | – | CCOP(=O)(OCC)C(C)(C)/[N+]([O-])=C/c1cc(O)cc(O)c1 | 23 | 98 | – | Active | < 5 | 4.9 | 7 | 7.9 | 0.6 | inactive | < 10 | Non-toxic | inactive | – |
| – | > 1000 | 0.02 | 350 | Not Active | Active | CCOP(=O)(OCC)C(C)(C)/[N+]([O-])=C/c1c(C)cccc1C | – | 105 | – | Active | – | 4.7 | 5.3 | 4.4 | 0.5 | – | – | Non-toxic | – | – |
| – | > 1000 | 0.1 | 123 | Not Active | – | CCOP(=O)(OCC)C(C)(C)/[N+]([O-])=C/c1cccc(O)c1 | 26 | 99 | – | Active | 6 | 7.6 | 8.3 | 7.5 | 0.8 | inactive | < 10 | Non-toxic | inactive | – |
| – | > 1000 | 0.65 | 60.8 | Not Active | – | CCOP(=O)(OCC)C(C)(C)/[N+]([O-])=C/c1ccc(O)cc1 | 18 | 99 | – | Active | < 5 | 10.5 | 12.4 | 13 | 1.6 | inactive | < 10 | Non-toxic | inactive | – |

The remaining lines, values behind:

| Compound | EC50 (Aorta [4]) [nM] | EC50 [9] [µM] | Activity [10] [equiv] | IC50 [11] [µM] | inhibition (INH) [20] | Activity [21] | Activity [2] [%] | Rmax (Aorta [3]) [%] | Rmax (Aorta [5]) [%] | inhibition (Aorta [6]) | Activity (Aorta [7]) [%] | IC50 (A549 [12]) [mM] | IC50 (A549 [13]) [mM] | IC50 (A549 [14]) [mM] | IC10 [15] [mM] | Activity (Aorta [16]) | Activity [17] [%] | Activity (Aorta [18]) | Activity (Aorta [19]) | other results |
| --- | --- | --- | --- | --- | --- | --- | --- | --- | --- | --- | --- | --- | --- | --- | --- | --- | --- | --- | --- | --- |
| CC(C)(C)N([O])C(O)c1ccccc1 (stereo not given) | – | – | – | – | – | – | – | – | – | – | – | – | – | – | – | – | – | – | – | half-life [1]: 1.5 min |
| CCOP(=O)(OCC)C(C)(C)/[N+]([O-])=C/c1ccccc1 | 148 | > 1000 | 0.02 | 375 | – | – | 19 | 100 | 75 | Active | 30 | 12.6 | 10.8 | 12.4 | 1.1 | – | – | – | – | IC10 (A549 [8]): 4.9 mM |
| CCOP(=O)(OCC)C(C)(C)/[N+]([O-])=C/c1ccccc1C(F)(F)F | – | > 1000 | 0.02 | 4.2 | Not Active | Active | – | 104 | – | – | – | 2.2 | 2.7 | 4.2 | 0.4 | – | – | Non-toxic | – | – |
| CCOP(=O)(OCC)C(C)(C)/[N+]([O-])=C/c1cc(OC)c(O)c(OC)c1 | 67.6 | 190 | 1.44 | 72.1 | Not Active | – | 8 | 101 | 77 | Active | < 5 | 12 | 14.8 | 15.3 | 2.6 | inactive | < 10 | Non-toxic | inactive | IC10 (A549 [8]): 6.1 mM |
| CCOP(=O)(OCC)C(C)(C)/[N+]([O-])=C/c1cc(O)c(O)c(O)c1 | 28.2 | 19 | 1.46 | 0.9 | Not Active | – | 29 | 104 | 93 | Active | < 5 | 0.6 | 0.6 | 0.7 | 0.2 | inactive | < 10 | Non-toxic | inactive | – |
| CC(C)(C)/[N+]([O-])=C/c1ccccc1 | 174 | > 1000 | 0.02 | > 4000 | – | Not Active | 10 | 98 | 62 | inactive | 25 | 11.4 | 9.6 | 10.8 | 2.4 | – | – | – | – | IC50 [22]: 9.4 mM; IC10 (A549 [8]): 5.1 mM |
| CCOP(=O)(OCC)C(C)(C)/[N+]([O-])=C/c1ccccc1[N+](=O)[O-] | – | > 1000 | 0.02 | 30 | Not Active | Active | 54 | 100 | – | – | – | 2.2 | 1.4 | 1.3 | < 0.1 | – | < 10 | Non-toxic | – | – |
| CCOP(=O)(OCC)C(C)(C)/[N+]([O-])=C/c1ccc(Cl)cc1 | – | – | – | – | – | Active | – | – | – | – | – | – | – | – | – | – | – | – | – | Activity [23]: Active |

— ChEMBL document CHEMBL3822454, “On the vasoprotective mechanisms underlying novel β-phosphorylated nitrones: Focus on free radical characterization, scavenging and NO-donation in a biological model of oxidative stress” (Eur J Med Chem, 2016)
